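Growth conditions: 96-well plates. Treatment: test compound, 48 hours, 5 concentrations. Analysis: linear interpolation between bracketing concentrations; unreached endpoints set to highest concentration. TGI denotes the concentration required for complete inhibition of growth.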
Assays:
Experiment in all cases: NCI tumour cell line growth inhibition, 48 h
HCT-116 colon = test system: HCT-116 colon
SNB-19 CNS = test system: SNB-19 CNS
OVCAR-4 ovarian = test system: OVCAR-4 ovarian
HT29 colon = test system: HT29 colon
MCF7 breast = test system: MCF7 breast
SW-620 colon = test system: SW-620 colon
SK-MEL-5 melanoma = test system: SK-MEL-5 melanoma
NCI-H23 lung = test system: NCI-H23 lung
HOP-62 NSCLC = test system: HOP-62 NSCLC
DU-145 prostate = test system: DU-145 prostate
786-0 renal = test system: 786-0 renal
UACC-257 melanoma = test system: UACC-257 melanoma
HCT-15 colon = test system: HCT-15 colon
NCI/ADR-RES ovarian = test system: NCI/ADR-RES ovarian
U251 CNS = test system: U251 CNS
MDA-N = test system: MDA-N
HOP-92 NSCLC = test system: HOP-92 NSCLC
NCI-H460 lung = test system: NCI-H460 lung
BT-549 breast = test system: BT-549 breast
OVCAR-8 ovarian = test system: OVCAR-8 ovarian
TK-10 renal = test system: TK-10 renal
HL-60(TB) leukemia = test system: HL-60(TB) leukemia
OVCAR-5 ovarian = test system: OVCAR-5 ovarian
KM12 colon = test system: KM12 colon
M14 melanoma = test system: M14 melanoma
IGROV1 ovarian = test system: IGROV1 ovarian
PC-3 prostate = test system: PC-3 prostate
SF-539 CNS = test system: SF-539 CNS
EKVX NSCLC = test system: EKVX NSCLC
CCRF-CEM leukemia = test system: CCRF-CEM leukemia
SNB-75 CNS = test system: SNB-75 CNS
SF-295 CNS = test system: SF-295 CNS
K-562 leukemia = test system: K-562 leukemia
MALME-3M melanoma = test system: MALME-3M melanoma
RXF 393 renal = test system: RXF 393 renal
SK-OV-3 ovarian = test system: SK-OV-3 ovarian
SF-268 CNS = test system: SF-268 CNS
A498 renal = test system: A498 renal
OVCAR-3 ovarian = test system: OVCAR-3 ovarian
HCC-2998 colon = test system: HCC-2998 colon
MOLT-4 leukemia = test system: MOLT-4 leukemia
MDA-MB-435 = test system: MDA-MB-435
SK-MEL-2 melanoma = test system: SK-MEL-2 melanoma
COLO 205 colon = test system: COLO 205 colon
ACHN renal = test system: ACHN renal
SK-MEL-28 melanoma = test system: SK-MEL-28 melanoma
MDA-MB-231 breast = test system: MDA-MB-231 breast
NCI-H226 lung = test system: NCI-H226 lung
NCI-H522 lung = test system: NCI-H522 lung
UO-31 renal = test system: UO-31 renal
UACC-62 melanoma = test system: UACC-62 melanoma
SR leukemia = test system: SR leukemia
LOX IMVI melanoma = test system: LOX IMVI melanoma
CAKI-1 renal = test system: CAKI-1 renal
A549 NSCLC = test system: A549 NSCLC
SN12C renal = test system: SN12C renal
T-47D breast = test system: T-47D breast
HS 578T breast = test system: HS 578T breast
RPMI-8226 leukemia = test system: RPMI-8226 leukemia

Measured: TGI

CC1=C(OC2OC(CO)C(O)C(O)C2O)C(=O)C[C@H]2C1=CC[C@@H]1[C@@]2(C)C(=O)C[C@]2(C)[C@@H]([C@@](C)(O)C(=O)CCC(C)(C)O)[C@H](O)C[C@@]12C (stereo partly drawn)
not listed: HS 578T breast | RPMI-8226 leukemia
> 100 µM: all other assays above

CC(=O)c1ccc2c(c1)oc(=O)n2CCN1CCCCC1
not listed: OVCAR-4 ovarian | HOP-92 NSCLC | SNB-75 CNS | HCC-2998 colon | NCI-H522 lung | UO-31 renal | A549 NSCLC | T-47D breast
> 100 µM: all other assays above

O=S(=O)(O)c1c(N=Nc2c(O)ccc3ccccc23)ccc2ccccc12
not listed: MCF7 breast | NCI-H460 lung | HL-60(TB) leukemia | SF-539 CNS | HCC-2998 colon | ACHN renal
> 100 µM: all other assays above

C[N+]1(C)CCC(C#N)(c2ccccc2)CC1
not listed: BT-549 breast | PC-3 prostate | SF-539 CNS | OVCAR-3 ovarian | MDA-MB-435 | SK-MEL-2 melanoma | MDA-MB-231 breast | NCI-H226 lung | NCI-H522 lung | UACC-62 melanoma | LOX IMVI melanoma | SN12C renal
> 100 µM: all other assays above
